Reference: US6852526B2, “Transdermal assay with magnetic clamp” (Transform Pharmaceuticals, Inc., priority 2000, dated 2005)
Where “and” joins values, the source holds several entries; their conditions need not be identical. Equal values may be shown once. Where a name gives a salt, the structure may show the parent alone. Read-outs that look alike come from different tables or passages of the source.

Assays:
[1] = Experimental: Human cadaver skin epidermis was prepared by first separating skin from the underlying fat and then separating the epidermis by heat treatment at 60° C. for 90 seconds using standard techniques.
An apparatus as described in FIG. 6 was assembled, wherein each plate in the apparatus was a rectangular shape having dimensions of 5.030″ (127.76 mm) by 3.365″ (85.48 mm). The apparatus was assembled by first placing a ⅛″ (3.175 mm) thick clear polycarbonate spacer plate 620 on top of an aluminum base plate 610 and aligning screw holes 622 in the spacer plate with screw holes 612 in the base plate. Thereafter, a 4×4 sample array was created on spacer plate 620, as described in Table 2 below:
Punched samples were placed on spacer plate 620 in the 4×4 array of Table 2 one at a time, and the location of each array sample was selected using guide marks 614 on base plate 610 to ensure that each array sample was placed such that it aligned with a donor reservoir 654 in reservoir plate 650. There were 96, 0.020″ (0.508 mm) deep, guide marks 614 on base plate 610, arranged in a 12×8 array which was located 11.24 mm in from the edges of the long sides of base plate 610, and 14.38 mm in from the edges of its short sides. At the time of placement, the release liner on each sample was removed to expose the drug reservoir/adhesive of the sample.
Array locations B3, C1, and D3 were controls without any samples in order to determine the potential impact of lateral diffusion on transdermal transport measurements with this apparatus.
Once all the samples were placed in the array, the piece of heat-stripped human cadaver skin, the size of which was larger than the array of samples, was gently and slowly placed over the samples so as to avoid any air pockets between the skin and the samples. The skin was oriented with the stratum corneum next to the samples. Then, a ¼″ (6.35 mm) thick clear polycarbonate reservoir plate 650 having an 4×4 array of ¼″ (6.35 mm) diameter donor reservoirs 654 was placed over the skin such that all of screw holes 652 on reservoir plate 650 were aligned with the corresponding screw holes 622 of spacer plate 620.
The resulting assembled apparatus 600 was clamped together by sliding a shoulder screw 660 with threads 622 through aligned screw holes 652 at each of the four corners of the assembled apparatus, and tightening each shoulder screw 660 so as to form a seal between reservoir plate 650 and the skin.
[…] of Dulbecco's Phosphate Buffered Saline (PBS) was added to each donor reservoir in the array as the reservoir medium.
After 2 hours, a […] test aliquot of reservoir medium was removed from each donor reservoir 654, and at that time, an additional […] of PBS was added into each donor reservoir 654. Each of the 2-hour test aliquots was placed in an HPLC vial and diluted to […] by addition of […] of 50:50 (v/v) 50 mM potassium phosphate (adjusted to pH 3.0 with phosphoric acid) and acetonitrile.
The foregoing process was repeated at 3 hours, 4 hours, and 5 hours.
The components of the HPLC system used to analyze the test aliquots were a Waters 2790 Separations Module, a Waters Photodiode Array Detector Model 996, and Waters Millennium 32 v3.2 Chromatography Software (Waters Corp., Milford Mass.).
The HPLC analysis was performed using a Platinum EPS C18 column (Alltech Associates, Muskegan, Mich.) with dimensions of 250 mm×4.6 mm and a […] particle size. The mobile phase was 50:50 (v/v) 50 mM potassium phosphate (adjusted to pH 3.0 with phosphoric acid): acetonitrile, with a flow rate of 1.0 ml/minute. Detection was performed by measuring UV absorbance at a wavelength of 260 nm. The run time was 4 minutes. Injection volume was […]. Column temperature was ambient.

[2] = passive experiments; cited from earlier work
[3] = cited from earlier work
[4] = empty control location (B3, C1, D3), no sample: lateral diffusion, 2 hour
[5] = empty control location (B3, C1, D3), no sample: lateral diffusion, 3 hour
[6] = empty control location (B3, C1, D3), no sample: lateral diffusion, 4 hour
[7] = sample* (A4, D1): drug reservoir came off the backing with the release liner, 2 hour
[8] = sample* (A4, D1): drug reservoir came off the backing with the release liner, 3 hour
[9] = sample* (A4, D1): drug reservoir came off the backing with the release liner, 4 hour
[10] = sample* (A4, D1): drug reservoir came off the backing with the release liner, 5 hour

CN1CCCC1c1cccnc1 (centres unmarked) [Nicotine, nicotine]
transdermal movement of the active component ([1]; detected in donor reservoirs over NICODERM CQ samples): crossed the skin barrier
lateral diffusion to adjacent wells ([1]; donor reservoirs not located over samples): sufficiently slower than direct transdermal movement
Nicotine Concentration Of Diluted Test Aliquots [1, 4]: 2.2 mg/mL and 1.5 mg/mL and 2.6 mg/mL
Nicotine Concentration Of Original Test Aliquots [1, 4]: 22.0 mg/mL and 15.0 mg/mL and 26.0 mg/mL
Nicotine Accumulation in donor reservoir ([1]; empty control location (B3, C1, D3), no sample: lateral diffusion, 2 hr): 1.650 mg and 1.125 mg and 1.950 mg
Nicotine Concentration Of Diluted Test Aliquots [1, 5]: 2.5 mg/mL and 3.2 mg/mL and 4.0 mg/mL
Nicotine Concentration Of Original Test Aliquots [1, 5]: 25.0 mg/mL and 32.0 mg/mL and 40.0 mg/mL
Nicotine Accumulation in donor reservoir ([1]; empty control location (B3, C1, D3), no sample: lateral diffusion, 3 hr): 4.663 mg and 3.150 mg and 4.300 mg
Nicotine Concentration Of Diluted Test Aliquots [1, 6]: 4.8 mg/mL and 2.7 mg/mL and 4.2 mg/mL
Nicotine Concentration Of Original Test Aliquots [1, 6]: 48.0 mg/mL and 27.0 mg/mL and 42.0 mg/mL
Nicotine Accumulation in donor reservoir ([1]; empty control location (B3, C1, D3), no sample: lateral diffusion, 4 hr): 7.075 mg and 4.375 mg and 6.450 mg
Nicotine Accumulation in donor reservoir ([1]; empty control location (B3, C1, D3), no sample: lateral diffusion, 5 hr): 10.975 mg and 5.650 mg and 8.925 mg
Nicotine Concentration Of Diluted Test Aliquots [1, 7]: 1.0 mg/mL and 1.1 mg/mL
Nicotine Concentration Of Original Test Aliquots [1, 7]: 10.0 mg/mL and 11.0 mg/mL
Nicotine Accumulation in donor reservoir ([1]; sample* (A4, D1): drug reservoir came off the backing with the release liner, 2 hr): 0.825 mg and 0.750 mg
Nicotine Concentration Of Diluted Test Aliquots [1, 8]: 1.2 mg/mL and 1.4 mg/mL
Nicotine Concentration Of Original Test Aliquots [1, 8]: 12.0 mg/mL and 14.0 mg/mL
Nicotine Accumulation in donor reservoir ([1]; sample* (A4, D1): drug reservoir came off the backing with the release liner, 3 hr): 1.600 mg and 1.400 mg
Nicotine Concentration Of Diluted Test Aliquots [1, 9]: 1.4 mg/mL and 1.6 mg/mL
Nicotine Concentration Of Original Test Aliquots [1, 9]: 14.0 mg/mL and 16.0 mg/mL
Nicotine Accumulation in donor reservoir ([1]; sample* (A4, D1): drug reservoir came off the backing with the release liner, 4 hr): 2.450 mg and 2.150 mg
Nicotine Concentration Of Diluted Test Aliquots [1, 10]: 1.6 mg/mL and 1.8 mg/mL
Nicotine Concentration Of Original Test Aliquots [1, 10]: 16.0 mg/mL and 18.0 mg/mL
Nicotine Accumulation in donor reservoir ([1]; sample* (A4, D1): drug reservoir came off the backing with the release liner, 5 hr): 3.400 mg and 3.000 mg

CCCCCCCC/C=C\CCCCCCCC(=O)OCC(COC(=O)CCCCCCC/C=C\CCCCCCCC)OC(=O)CCCCCCC/C=C\CCCCCCCC [glycerol trioleate]
corticosterone flux enhancement relative to the passive flux from PBS alone [2]: 0.8

COC1=CC(=O)C[C@@H](C)[C@]12Oc1c(Cl)c(OC)cc(OC)c1C2=O [griseofulvin]
Properties: absorption / water solubility [3]: Poor absorption due to its low water

CCCCCCCCCCCCCC(=O)OC(C)C [isopropyl myristate]
corticosterone flux enhancement relative to the passive flux from PBS alone [2]: 5

CC(=O)O[C@H]1C(=O)[C@@]2(C)[C@H]([C@H](OC(=O)c3ccccc3)[C@]3(O)C[C@H](OC(=O)[C@H](O)[C@@H](NC(=O)c4ccccc4)c4ccccc4)C(C)=C1C3(C)C)[C@]1(OC(C)=O)CO[C@@H]1C[C@@H]2O [paclitaxel]
Properties: absorption / water solubility [3]: Poor absorption due to its low water

CC(C)c1nc(CN(C)C(=O)N[C@H](C(=O)N[C@@H](Cc2ccccc2)C[C@H](O)[C@H](Cc2ccccc2)NC(=O)OCc2cncs2)C(C)C)cs1 [ritonavir]
Properties: polymorphic stability ([3]; shipping and storage): Can undergo a polymorphic shift during

CC(C)(C)NC(=O)[C@@H]1C[C@@H]2CCCC[C@@H]2CN1C[C@@H](O)[C@H](Cc1ccccc1)NC(=O)[C@H](CC(N)=O)NC(=O)c1ccc2ccccc2n1 [saquinavir]
Properties: absorption / water solubility [3]: Poor absorption due to its low water

CCCc1nn(C)c2c(=O)[nH]c(-c3cc(S(=O)(=O)N4CCN(C)CC4)ccc3OCC)nc12 [sildenafil citrate]
Properties: absorption / water solubility [3]: Poor absorption due to its low water

polyethylene glycol 200 dilaurate
corticosterone flux enhancement relative to the passive flux from PBS alone [2]: 2
